Entries after “also recorded” stand apart in the source; their conditions may differ.
How the values were obtained:
G140-DDR1a cells [1] = assay: Invasion assay through Collagen type 1 coated membranes; format: cell-based, human; settings: 25 μM
Procedure: (§1) Migration and Invasion Assays: Migration assays were performed using 24-well fluoroblok chambers (BD Biosciences, […] pore size). Cells overexpressing DDR1a, DDR1 b, vector alone (Mock) and parental cells were trypsinized and 1×10^6 cells were suspended in DMEM plus 1% serum. 100, 000 cells were placed in the upper chambers (Becton Dickenson-Fluoroblok plates-8 μm) in triplicate. DMEM with 5% serum was added to the lower chambers. After 4 hours, cells adhering to the underside of the membrane were stained with 4 μg/ml Calcein AM (Molecular Probes, Inc.) and fluorescence emitted by cells that have migrated through the chamber to the underside of the filter was measured at λs of 530/590 nm using a CytoFlor plate reader (Series 4000, Perspective Biosystems). For Invasion Assays: Rat tail Collagen type I (BD Biosciences, 10 μg/ml), human Collagen type IV (BD Biosciences, […]), human Fibronectin (BD Biosciences, 5 μg/ml) were used to coat the underside of the chambers and Fluoroblok plates previously coated with Matrigel (BD Biosciences, 24 wells) were used. […] The cells were allowed to invade through the matrices at 37° C. for 16 hrs and stained with Calcein AM and fluorescence emitted by cells was measured at Xs of 530/590 nm using a CytoFlor plate reader (Series 4000, Perspective Biosystems). […]

glioma cells = assay: Migration assay in Fluoroblok chambers; format: cell-based, human; settings: glioma cells overexpressing DDR1a
Procedure: as §1

G140-DDR1a cells [2] = assay: Invasion assay through Matrigel-coated Fluoroblok membranes; format: cell-based, human; settings: 25 μM
Procedure: as §1

MMP-2 = assay: Gelatin zymography of conditioned media (MMP-2 activation); format: cell-based, human
Procedure: Zymography: Serum-free media from G140 cell lines were stimulated with Collagen type I (10 μg/mL and collected after 24 hr. In some experiments, GM6001 (25 μM, 50 μM) was added to the media. The media was mixed with Tris-Gycine SDS Sample buffer (2×) and 20 μg of protein was subjected to 10% SDS-polyacrylamide gel electrophoresis (Invitrogen, Inc.) using 0.1% gelatin. After electrophoresis, gels were incubated in 2.5% Triton X-100 (Renaturing Buffer, Invitrogen, Inc.) for 30 minutes twice to remove SDS, and replaced with 50 mM Tris-Hcl, pH 7.5 containing 0.15 M NaCl, 10 mM CaCl2, and 0.02% NaN3 (Developing Buffer, Invitrogen, Inc.) overnight and then stained with Coomassie Blue R-250 for 30 minutes.

DDR1 [3] = molecular target: T1, DDR1 (Homo sapiens, UniProt Q08345); assay: Immunoprecipitation for DDR1 phosphorylation; format: cell-based; parameters: expressed in transfected cells; host or cells: G140 glioma cells stably transduced with a pLEN retroviral vector carrying DDR1a or DDR1b; settings: 10 μg/ml soluble
Procedure: (§2) Immunoprecipitation for DDR1 phosphorylation: Rat tail collagen type 1 was purchased from Collaborative Biomedical Products (Bedford, Mass., USA). Cells were stimulated with 10 μg/ml soluble collagen type 1 for various periods of time. Cell lysates were prepared in RIPA buffer and immunoprecipitation was performed by incubating 1000 μg of cell extracts with DDR1 (C-20) antibody overnight at 4° C. Protein A beads (Santa Cruz Biotechnology: 50 μl) were added for 1 hr; the beads were washed three times with wash buffer and aliquots of the supernatant were subjected to SDS-PAGE. The blots were probed with monoclonal anti-phosphotyrosine antibody (4G10; Upstate Biotechnology Inc.) and visualized using the enhanced chemiluminescence (ECL) system (Amersham Pharmacia Biotech, Uppsala, Sweden). The blots were stripped and reprobed with a polyclonal antibody for DDR1 (C-20). Western Blot. The blots were probed with β-actin antibody to confirm equal loading.

DDR1 [4] = molecular target: T1, DDR1; assay: DDR1 internalization, Cellomics ArrayScan; format: cell-based; parameters: DDR1 is phosphorylated as a 125 kD (full length) protein; settings: human Glioma derived cells; soluble, 30 minutes
Procedure: Cells are rinsed once with HBSS and fixed with 3.7% neutral buffered formalin. The fixation solution is aspirated, and the plate washed with blocking buffer, and then incubated with permeabilization buffer for 10 minutes. The cells are then stained with fluorescence conjugated secondary antibody solution containing 10 ug/ml Hoechst 33342 (to stain nuclei) for 30 minutes at room temperature. Plates are washed twice, sealed, and stored in HBSS at 4 C. Images are acquired using the ArrayScan HCS system and internalized receptors quantitated using a proprietary algorithm. The algorithm measures the appearance and intensity of fluorescent receptor aggregates inside the cell. These measurements are represented as mean cytoplasmic intensity (amount of antibody-receptor complex inside the cell) and mean cytoplasmic texture (a measure of the endosome aggregates). Antibodies that trigger receptor internalization are further evaluated. Antibodies that bind to DDR1 on human glioma cells and become internalized are of particular interest. In some instances endocytosis serves as a surrogate marker for other therapeutic biologic effects, such as growth inhibition.
DDR1 internalization. Human Glioma derived were treated with soluble collagen I for 30 minutes and then stained for DDR1. The Cellomics ArrayScan fluorescent microscope instrument was used to identify and quantitate internalized DDR1 (FIG. 8).
Target sequence in this assay (Q08345 19-913): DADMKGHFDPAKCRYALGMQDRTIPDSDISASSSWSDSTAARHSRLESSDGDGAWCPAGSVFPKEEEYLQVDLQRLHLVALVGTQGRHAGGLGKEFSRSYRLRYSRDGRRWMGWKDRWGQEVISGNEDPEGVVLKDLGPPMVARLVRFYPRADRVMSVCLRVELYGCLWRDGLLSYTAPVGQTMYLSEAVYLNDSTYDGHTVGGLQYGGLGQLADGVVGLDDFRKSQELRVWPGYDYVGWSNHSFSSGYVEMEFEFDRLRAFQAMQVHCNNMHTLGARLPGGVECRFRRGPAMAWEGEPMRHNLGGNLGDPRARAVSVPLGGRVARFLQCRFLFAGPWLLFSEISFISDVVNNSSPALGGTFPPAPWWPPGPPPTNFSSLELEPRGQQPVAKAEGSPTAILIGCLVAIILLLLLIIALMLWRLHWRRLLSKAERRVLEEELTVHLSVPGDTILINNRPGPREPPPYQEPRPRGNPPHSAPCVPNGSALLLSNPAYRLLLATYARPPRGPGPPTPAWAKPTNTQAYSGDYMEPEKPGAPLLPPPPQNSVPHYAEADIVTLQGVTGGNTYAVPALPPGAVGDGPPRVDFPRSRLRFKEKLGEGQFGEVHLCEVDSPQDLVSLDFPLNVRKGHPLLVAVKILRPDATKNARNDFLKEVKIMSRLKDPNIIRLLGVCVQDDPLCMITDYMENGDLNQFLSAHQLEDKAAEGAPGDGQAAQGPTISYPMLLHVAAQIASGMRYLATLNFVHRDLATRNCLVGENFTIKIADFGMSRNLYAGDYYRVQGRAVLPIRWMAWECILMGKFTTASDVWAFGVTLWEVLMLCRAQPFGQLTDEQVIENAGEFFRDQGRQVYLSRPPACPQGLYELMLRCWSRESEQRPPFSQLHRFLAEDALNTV

DDR1 [5] = molecular target: T1, DDR1; assay: DDR1 activation in Glioma cells, anti-phosphotyrosine western blot; format: cell-based; parameters: DDR1 is phosphorylated as a 125 kD (full length) protein; settings: 60 minutes, 10 ug/ml (EGF 20 ng/ml)
Procedure: DDR1 activation in Glioma cells. DDR1 Glioma cells were stimulated with 10 ug/ml of Type1 collagen, 10 ug/ml Vitrogen, 10 ug/ml Fibronectin and 20 ng/ml EGF for 60 minutes. After stimulation, cells were lysed in RIPA buffer and resolved a 10% polyacrylamide gel (10%) gel. Lane 1, Nonstimulates, Lane 2, Type 1 Collagen (10 ug/ml, Lane 3 stimulated with Vitrogen (10 μg/ml), Lane 4 stimulated with human Fibronectin (10 μg/ml), Lane 5 stimulated with EGF 20 ng/ml) for 60 minutes. Cell lysates were analysed by anti-phosphotyrosine (4G10, Upstate Biotechnology) panel a, anti-DDR1 (C-20, Santa Cruz Biotechnology Inc.) panel b, and anti-DDR1 N-terminal H-126 (SCBT) panel c by western blotting. […] DDR1 is proteolytically cleaved in response to ligand stimulation. A 52 kD soluble protein was detected in the media with H-126, a N-terminal anti-DDR1 antibody (panel c).
Target sequence in this assay (Q08345 19-913): as above

DDR1 [6] = assay: Immunoprecipitation for DDR1 phosphorylation; format: cell-based, human; settings: G140 parental cells; 10 μg/ml soluble
Procedure: as §2

MMP-1, MMP-2 and MMP-9 = assay: Gelatin zymography of media of DDR1 overexpressing glioma cells (Example 1); format: cell-based, human; settings: 20 ug/ml; 48 hrs; serum-free medium
Procedure: DDR1 overexpressing glioma cells reveal increased prescence of MMP-9, MMP-2 and MMP-1. Cells overexpressing DDR1a and DDR1b, DDR1 ex (extracellular domain construct) and Emmprin ex (extracellular domain construct), Ht1080 cells and human Fibroblasts, cells expressing empty vector were plated onto plates. After 24 hrs of plating, media was replaced with Serum-free medium with or without 20 ug/ml Type 1 Collagen and were incubated for 48 hrs at 37° C. Media from cells was collected and concentrated. 10 ug of media from each sample was resolved on a polyacrylamide gel (10%) containing 0.1% gelatin. Following electrophoresis, gels were washed twice with 5% Triton X-100 (30 min each). After washing, the gels were incubated for 24 h at 37° C. in the presence of 50 mM Tris-HCl, 5 mM CaCl2, 5 μM ZnCl2, pH 7.5, stained with Coomassie Brilliant Blue R-250 for 30 min and then destained. MMP-1, MMP-2 and MMP-9 production was induced by native type I collagen.

CNC(=O)[C@H](Cc1c[nH]c2ccccc12)NC(=O)[C@@H](CC(=O)NO)CC(C)C [GM6001]
DDR1a mediated invasion through collagen type 1 (G140-DDR1a cells [1]): prevented | DDR1a mediated invasion through collagen type 1 (G140-DDR1a cells [1]; listed as GM60001): inhibited | migration of glioma cells (glioma cells): prevented | DDR1a mediated invasion through matrigel (G140-DDR1a cells [2]): prevented | DDR1a mediated invasion through matrigel (G140-DDR1a cells [2]; listed as GM60001): inhibited | DDR1a stimulated activation / enzymatic activity of MMP-2 (MMP-2; 25 μm, G140-DDR1a cells, collagen 1 stimulation): effectively inhibited; also recorded: prevented

Collagen type 1: Rat tail collagen type 1, DDR1 ligand used to stimulate cells
time of maximal DDR1a phosphorylation (DDR1 [3]; G140-DDR1a cells): 60 min | time of peak phosphorylation of G140-DDR1b (DDR1 [3]; G140-DDR1b cells): 90 min | DDR1 internalization (mean cytoplasmic intensity, cytoplasmic texture) (DDR1 [4]): induces DDR1 to appear in the cytoplasm | tyrosine phosphorylation of DDR1 (DDR1 [5]; listed as Type 1 Collagen): phosphorylated; also recorded: resulted in tyrosine phosphorylation of DDR1 | time of peak autophosphorylation of endogenous DDR1 (DDR1 [6]): 60 min | MMP-1, MMP-2 and MMP-9 production (MMP-1, MMP-2 and MMP-9): induced | activation of pro-MMP-2 and Pro-MMP-1 (MMP-1, MMP-2 and MMP-9): Increased activation | conversion of intermediate (64 kDa) to active form of MMP-2 (62 kDa) (MMP-2; 10 μg/ml, G140-DDR1a overexpressing cells): increased conversion | MMP-2 activation (MMP-2; 10 μg/ml, G140 parental, G140-DDR1b and G140 mock cells): did not increase

EGF: EGF 20 ng/ml, used to stimulate DDR1 Glioma cells
tyrosine phosphorylation of DDR1 (DDR1 [5]): phosphorylated; also recorded: resulted in tyrosine phosphorylation of DDR1

Fibronectin: human Fibronectin, used to stimulate DDR1 Glioma cells
tyrosine phosphorylation of DDR1 (DDR1 [5]): phosphorylated; also recorded: resulted in tyrosine phosphorylation of DDR1

Source: US20070025997A1, “Use of biomolecular targets in the treatment and visualization of brain tumors” (priority 2002, published 2007)
